Measured values taken from paper PMC8858318, “Targeting autophagy peptidase ATG4B with a novel natural product inhibitor Azalomycin F4a for advanced gastric cancer” (Cell Death & Disease, 2022).

Biological target: T1, ATG4B (Homo sapiens, UniProt Q9Y4P1)
T1 sequence (Q9Y4P1 1-393): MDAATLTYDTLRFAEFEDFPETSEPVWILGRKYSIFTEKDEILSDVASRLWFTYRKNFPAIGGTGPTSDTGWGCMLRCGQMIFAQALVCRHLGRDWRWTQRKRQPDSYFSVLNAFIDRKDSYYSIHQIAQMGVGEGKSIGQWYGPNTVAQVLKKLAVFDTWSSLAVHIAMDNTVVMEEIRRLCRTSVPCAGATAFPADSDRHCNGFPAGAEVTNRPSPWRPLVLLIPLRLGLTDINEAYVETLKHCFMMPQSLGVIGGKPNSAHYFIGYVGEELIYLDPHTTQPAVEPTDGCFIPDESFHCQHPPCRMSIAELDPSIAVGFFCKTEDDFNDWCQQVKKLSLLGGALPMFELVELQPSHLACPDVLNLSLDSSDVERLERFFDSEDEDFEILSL
Test: SPR (Biacore 8K, immobilized purified ATG4B); also FRET activity assay and gel-based FRET-GATE16 cleavage assay
Type: binding

**Q.** Which Kd does the source give for `CN=C(N)NCCC/C=C/CCCC(C)C1OC(=O)/C(C)=C\C=C/C(C)C(O)CC(O)C(C)C(O)CCC(C)C(O)CC2(O)OC(CC(OC(=O)CC(=O)O)CC(O)CC(O)CC(O)/C(C)=C\C=C/C1C)CC(O)C2O` (stereo not shown) [Am-F4a, Azalomycin F4a] here?
**A.** The Kd was 11.8 µM.
